Data on 1 compound can be found in PMC12579247, “Tanshinone IIA inhibits heat-induced growth of p53-mutant Huh-7 hepatocellular carcinoma by modulating osmotic homeostasis and glycolysis through targeting ALDH7A1” (Cell Death Discovery, 2025).

The target in this assay is T1, ALDH7A1 (Homo sapiens, UniProt P49419).
T1 construct: endogenous protein in heat-pretreated (44 °C) Huh-7 cells; CETSA on total protein extract, detected by Western blot
T1 sequence (P49419 27-539): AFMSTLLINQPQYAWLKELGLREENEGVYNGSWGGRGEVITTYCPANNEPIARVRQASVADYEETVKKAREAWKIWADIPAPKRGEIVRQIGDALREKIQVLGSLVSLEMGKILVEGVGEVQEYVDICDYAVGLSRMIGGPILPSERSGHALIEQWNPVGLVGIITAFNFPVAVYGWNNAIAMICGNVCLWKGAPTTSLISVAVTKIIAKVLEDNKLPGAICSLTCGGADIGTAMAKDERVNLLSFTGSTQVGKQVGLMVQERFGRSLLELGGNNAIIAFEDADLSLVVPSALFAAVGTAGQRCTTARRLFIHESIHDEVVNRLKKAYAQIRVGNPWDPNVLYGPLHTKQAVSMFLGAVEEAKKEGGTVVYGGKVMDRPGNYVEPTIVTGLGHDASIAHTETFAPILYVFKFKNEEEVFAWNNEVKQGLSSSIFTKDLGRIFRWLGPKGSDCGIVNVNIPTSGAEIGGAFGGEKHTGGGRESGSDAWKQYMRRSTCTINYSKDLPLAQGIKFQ
The experiment in a line: CETSA, Western blot. Conditions: 0, 4, 8 µM for 24 h in cells, extract then heated at 63 °C for 5 min; heat-pretreated Huh-7 cells. It counts as cell-based.

Take `Cc1coc2c1C(=O)C(=O)c1c-2ccc2c1CCCC2(C)C` [Tan IIA]: the “CETSA, Western blot” value was “CETSA results showed that the binding of Tan IIA to ALDH7A1 was concentration-dependent”.
